Experimental data published in article PMC8170916, “Sublingual AKBA Exerts Antidepressant Effects in the Aβ-Treated Mouse Model” (Biomolecules, 2021).

What was measured:
glutamate (GLU) = experiment: Glutamate quantification in PFC and HIPP by HPLC with fluorescence detection; format: in vivo; conditions: PFC, mice 7 days after icv Aβ 4 µM; sublingual AKBA 5 mg/kg 30 min earlier
Protocol: (§1) All behavioral experiments were conducted at 5 or 30 min after sublingual administrations of AKBA or vehicle in either SHAM or Aβ-treated mice. Based upon behavioral outcomes observed, neurochemical and biochemical quantifications were performed 30 min after AKBA or vehicle administration in either SHAM or Aβ-treated mice.
(§2) Anesthetized animals were sacrificed by cervical dislocation. Brains were immediately removed and kept on ice for dissection of PFC and HIPP, according to the atlas of Paxinos and Franklin. Tissues were frozen and stored at −80 °C until analyses were carried out. Samples (PFC and HIPP) were homogenized (1:10 w/v) at 4 °C using a PBS buffer containing a 1:100 protease and phosphatase inhibitor cocktail (HALT inhibitors, Thermo Fisher Scientific, Cleveland, OH, USA) for biochemical analyses or perchloric acid 0.1 M for neurochemical analyses. Homogenates were centrifuged at 13,000× g at 4 °C for 20 min, and supernatants were used for further determinations.
(§3) 5-HT, noradrenaline (NA), and KYN levels were measured in the PFC and HIPP of mice by HPLC coupled with an electrochemical detector (Ultimate ECD, Thermo Scientific Dionex, Milan, Italy) as already reported. Separation was performed by a LC18 reverse phase column (Kinetex, 150 mm × 3.0 mm, ODS 5 μm; Phenomenex, Castel Maggiore-Bologna, Italy). The detection was accomplished by a thin layer amperometric cell (Thermo Scientific Dionex, Milan, Italy) with a 5 mm diameter glassy carbon electrode at a working potential of 400 mV (5-HT and NA) or 0.750 mV (KYN) vs. Pd. The mobile phase consisted of an aqueous buffer containing 75 mM NaH2PO4, 1.7 mM octane sulfonic acid, 0.3 mM EDTA, and acetonitrile 10%, buffered at pH 3.0. […] GLU concentrations were determined by HPLC coupled with fluorescence detection (emission length 460 nm; excitation length 340 nm), as previously published. […] Results were analyzed by Borwin software (version 1.50; Jasco, Cremella, Italy) and the amino acid concentration was expressed as µM. All data were normalized for total area weight and were expressed as concentration/mg of tissue.

APPswe/PS1dE9 = test system: APPswe/PS1dE9; set-up: method as in PMID 32109514; conditions: AD genetic model; cited from earlier work
NF-kB p65 = experiment: Western blotting quantification of NF-kB p65 in PFC and HIPP; format: in vivo; conditions: mice 7 days after icv Aβ 4 µM, sublingual AKBA 5 mg/kg 30 min earlier
Protocol: as §1, §2
(§4) The total amount of proteins was measured in homogenates by using Pierce BCA Assay (Thermo Fisher Scientific, Cleveland, OH, USA). Forty µg of the total lysate protein were separated by SDS-PAGE precast gels (Bio-Rad Laboratories Inc., Segrate (MI), Italy), transferred onto nitrocellulose membranes (Bio-Rad Laboratories Inc, Segrate (MI), Italy) and then blocked for 1 h in blocking buffer (SigmaAldrich, Milan, Italy). Rabbit polyclonal antibody against GFAP (Dako Products, USA; 1:2000), rabbit monoclonal antibody against CD11b (Abcam, Cambridge, MA, USA; ab133357, 1:1000) and mouse monoclonal antibody against NF-kB p65 (Santa Cruz Biotechnology, Dallas, Texas, USA; 1:2000) were used to incubate the membranes overnight at 4 °C. After HRP-conjugated specific antibody incubation, ECL reagent (Bio-Rad Laboratories Inc., Segrate (MI), Italy) was added to the immune complex and chemiluminescence was detected by ChemiDoc MP system (Bio-Rad Laboratories Inc., Segrate (MI), Italy). Optical densities of the bands were measured using ImageJ software (http://rsb.info.nih.gov/ij/ accessed on 15 March 2021) and normalized against bands relative to β-actin (1:5000, Abcam, Cambridge, UK).

noradrenaline (NA) = experiment: Noradrenaline quantification in PFC and HIPP by HPLC with electrochemical detection; format: in vivo; conditions: mice 7 days after icv Aβ 4 µM, sublingual AKBA 5 mg/kg 30 min earlier
Protocol: as §1, §2, §3

kynurenine (KYN) = experiment: Kynurenine quantification in PFC and HIPP by HPLC with electrochemical detection; format: in vivo; conditions: mice 7 days after icv Aβ 4 µM, sublingual AKBA 5 mg/kg 30 min earlier
Protocol: as §1, §2
(§5) 5-HT, noradrenaline (NA), and KYN levels were measured in the PFC and HIPP of mice by HPLC coupled with an electrochemical detector (Ultimate ECD, Thermo Scientific Dionex, Milan, Italy) as already reported. Separation was performed by a LC18 reverse phase column (Kinetex, 150 mm × 3.0 mm, ODS 5 μm; Phenomenex, Castel Maggiore-Bologna, Italy). The detection was accomplished by a thin layer amperometric cell (Thermo Scientific Dionex, Milan, Italy) with a 5 mm diameter glassy carbon electrode at a working potential of 400 mV (5-HT and NA) or 0.750 mV (KYN) vs. Pd. The mobile phase consisted of an aqueous buffer containing 75 mM NaH2PO4, 1.7 mM octane sulfonic acid, 0.3 mM EDTA, and acetonitrile 10%, buffered at pH 3.0. The flow rate was kept at 0.7 mL·min-1 by an isocratic pump (Shimadzu LC-10 AD, Kyoto, Japan). Data acquisition and integration were performed by using Chromeleon software (version 6.80, Thermo Scientific Dionex, Milan, Italy). GLU concentrations were determined by HPLC coupled with fluorescence detection (emission length 460 nm; excitation length 340 nm), as previously published. Analyses were carried out using an LC18 reverse phase column (Kinetex, 150 mm × 3.0 mm, ODS 5 μm; Phenomenex, Castel Maggiore, Bologna, Italy) and detection was accomplished by pre-column derivatization with ophthalaldehyde/mercaptopropionic acid. The mobile phase consisted of a 50 mM sodium acetate buffer, at pH 6.95, with gradient methanol increasing linearly from 2 to 30% (v/v) over a 40 min run. […] Results were analyzed by Borwin software (version 1.50; Jasco, Cremella, Italy) and the amino acid concentration was expressed as µM. All data were normalized for total area weight and were expressed as concentration/mg of tissue.

5-HT = 5-HT quantification in PFC and HIPP by HPLC with electrochemical detection; format: in vivo; conditions: mice 7 days after icv Aβ 4 µM, sublingual AKBA 5 mg/kg 30 min earlier
Protocol: as §1, §2, §5

Caco-2 cells = test system: Caco-2 cells; set-up: method as in PMID 19010411; conditions: in vitro model to simulate human intestinal absorption; cited from earlier work
CD11b = experiment: Western blotting quantification of CD11b in PFC and HIPP; format: in vivo; conditions: mice 7 days after icv Aβ 4 µM, sublingual AKBA 5 mg/kg 30 min earlier
Protocol: as §1, §2, §4

Aβ-treated mice [1] = experiment: Tail suspension test in Aβ-treated mice; format: in vivo; conditions: mice 7 days after icv Aβ 4 µM, sublingual AKBA 5 mg/kg 30 min before, Aβ vs SHAM
Aβ-treated mice [2] = experiment: Splash test in Aβ-treated mice; format: in vivo; conditions: mice 7 days after icv Aβ 4 µM
GFAP = experiment: Western blotting quantification of GFAP in PFC and HIPP; format: in vivo; conditions: mice 7 days after icv Aβ 4 µM, sublingual AKBA 5 mg/kg 30 min earlier
Protocol: as §1, §2, §4

[3] = set-up: method as in PMID 21553931; conditions: cited from earlier work
intact mice = experiment: Preliminary experiments on antidepressant effects in intact mice; format: in vivo; conditions: unpublished observations
Protocol: AKBA (Cayman Chemical Company) was dissolved in sunflower oil, this vehicle was chosen in order to maintain a better tasting and higher density of the final solution thus reducing reflux through the digestive tract. […] Ten µL of the solution (or vehicle alone) was sublingually administered to mice. For intranasal administration, requiring more hydrophilic solution, AKBA was dissolved in DMSO and saline (1:3, v/v), and given to mice at the same final dose of 5 mg/kg. Cerebral AKBA was quantified in a separate subset of mice at 5, 15 and 30 min after its administration, either sublingually or intranasally.

[4] = sublingual AKBA 5 mg/kg 30 min before testing, Aβ vs SHAM, Aβ+AKBA vs Aβ

CC(=O)O[C@@H]1CC[C@@]2(C)[C@@H](CC[C@]3(C)[C@@H]2C(=O)C=C2[C@@H]4[C@@H](C)[C@H](C)CC[C@]4(C)CC[C@]23C)[C@@]1(C)C(=O)O [AKBA, 3-O-acetyl-11-keto-β-boswellic acid]
GLU levels in the PFC (glutamate (GLU)): restored those levels to control | Cerebral amyloid beta (Aβ) production and plaque burden in APPswe/PS1dE9 (APPswe/PS1dE9): decrease cerebral amyloid beta (Aβ) production and plaque burden | Cognitive impairments in APPswe/PS1dE9 (APPswe/PS1dE9): able to reverse cognitive impairments | NF-kB p65 content in the HIPP (optical density normalized to actin) (NF-kB p65; HIPP): prevented such an increase | NF-kB p65 levels in the PFC (optical density normalized to actin) (NF-kB p65; PFC): prevented such an increase | NA levels in the HIPP (noradrenaline (NA); HIPP): further increase compared to SHAM mice | NA levels in the PFC (noradrenaline (NA); PFC): significantly increased NA levels | KYN levels in the HIPP (kynurenine (KYN); HIPP): prevented the increase in KYN levels | KYN levels in the PFC (kynurenine (KYN); PFC): prevented such an increase | 5-HT levels in the HIPP (5-HT; HIPP): no differences among experimental groups | 5-HT levels in the PFC (5-HT; PFC): no effect | Permeability in Caco-2 cells (Caco-2 cells): low permeability | CD11b levels in the HIPP (optical density normalized to actin) (CD11b; HIPP): not able to modify such an outcome | CD11b content in the PFC (optical density normalized to actin) (CD11b; PFC): no differences were found among experimental groups | Immobility time in the tail suspension test (Aβ-treated mice [1]): prevented such an effect | Depressive-like behavior induced by Aβ in the splash test, 5 min after AKBA (Aβ-treated mice [2]; sublingual AKBA 5 mg/kg 5 min before testing): not reverted | Latency to leak in the splash test (Aβ-treated mice [2]; [4]): such an outcome was reverted | Time spent performing self-care in the splash test (Aβ-treated mice [2]; [4]): prevented such an effect | GFAP levels in the HIPP (optical density normalized to actin) (GFAP; HIPP): restored those levels back to control | GFAP levels in the PFC (optical density normalized to actin) (GFAP; PFC): prevented such an increase | Oral bioavailability [3]: low oral bioavailability | Lowest dose showing antidepressant effects on intact mice (intact mice): 5 mg/kg
